This note sets out measurements from patent publication US9636345B2, “Benzimidazole derivatives useful TRPM8 channel modulators” (Janssen Pharmaceutica NV, priority 2009, dated 2017).

For the assay, the target named is T1, canine TRPM8 (Canis lupus familiaris, UniProt Q1A7N1).
T1 construct: expressed in transfected cells
The assay can be described thus: In vitro canine TRPM8 functional assay (icilin-induced intracellular Ca2+ increase, FLIPR/FDSS). The format is cell-based. Conditions: for % Inh @ 0.2 μM / inhibition at 0.2 µM: 0.2 μM compound, HEK293 canine TRPM8; for IC50: read-out: IC50; for % Inh @ 1 μM / inhibition at 1 µM: 1 μM compound, samples diluted from 10 mM stock with 100% DMSO. Here is the method: The functional activity of representative compounds of the formula (I) of the present invention was quantified by measuring changes in intracellular calcium concentration using a Ca^2+-sensitive fluorescent dye. The changes in fluorescent signal were monitored by a fluorescence plate reader, either a FLIPR™ (Molecular Devices) or FDSS (Hamamatsu).
HEK293 cells stably expressing canine TRPM8 were routinely grown as monolayers in Dulbecco's minimum essential medium supplemented with 10% FBS, 2 mM L-glutamine, 100 units/mL penicillin, 100 ug/mL streptomycin and 400 μg/mL G418. Cells were maintained in 5% CO2 at 37° C. At 24 hr prior to assay, cells were seeded in black wall, clear-base poly-D-lysine coated 384-well plates (BD Biosciences, N.J., USA) at a density of 5,000 cells per well in culture medium and grown overnight in 5% CO2 at 37° C. On assay day, growth media was removed, and cells were loaded with Calcium 3 Dye (Molecular Devices) for 35 min at 37° C., under 5% CO2 and then incubated for 25 min at room temperature and atmosphere. Subsequently, cells were tested for agonist-induced increases in intracellular Ca^2+ levels using FLIPR™ or FDSS. Cells were treated with compounds of the formula (I) at varying concentrations and intracellular Ca^2+ was measured for 5 min prior to the addition of icilin to all wells to achieve a final concentration that produces approximately an 80% maximal response.
Basal FI was subtracted prior to normalizing data to percent of maximal response. Curves were generated using the average of quadruplicate wells for each data point using nonlinear regression of either sigmoidal dose response or sigmoidal dose response (variable slope). Finally, the EC50 and IC50 values were calculated with the best-fit curve determined by GraphPad Prism
Test samples were prepared by diluting a 10 mM stock solution of test compound with 100% DMSO prior to addition to assay buffer.

Setting [1] is: HEK293 cells stably expressing canine TRPM8, icilin at ~80% maximal response, Table 6.
Where [2] appears, read: re-test, samples diluted from 10 mM stock with 100% DMSO before addition to assay buffer, Table 7.

SMILES strings stand for the structures. Counter-ions that a name gives are not always drawn. Like-named read-outs stand apart in the source and are kept apart here.

One may read the IC50 as the concentration that gives 50% inhibition. A word on the inhibition: it is the share of the control response that was lost under treatment. The low end stands for a weak effect, the high end for a strong effect.

T1 sequence (Q1A7N1 1-1104): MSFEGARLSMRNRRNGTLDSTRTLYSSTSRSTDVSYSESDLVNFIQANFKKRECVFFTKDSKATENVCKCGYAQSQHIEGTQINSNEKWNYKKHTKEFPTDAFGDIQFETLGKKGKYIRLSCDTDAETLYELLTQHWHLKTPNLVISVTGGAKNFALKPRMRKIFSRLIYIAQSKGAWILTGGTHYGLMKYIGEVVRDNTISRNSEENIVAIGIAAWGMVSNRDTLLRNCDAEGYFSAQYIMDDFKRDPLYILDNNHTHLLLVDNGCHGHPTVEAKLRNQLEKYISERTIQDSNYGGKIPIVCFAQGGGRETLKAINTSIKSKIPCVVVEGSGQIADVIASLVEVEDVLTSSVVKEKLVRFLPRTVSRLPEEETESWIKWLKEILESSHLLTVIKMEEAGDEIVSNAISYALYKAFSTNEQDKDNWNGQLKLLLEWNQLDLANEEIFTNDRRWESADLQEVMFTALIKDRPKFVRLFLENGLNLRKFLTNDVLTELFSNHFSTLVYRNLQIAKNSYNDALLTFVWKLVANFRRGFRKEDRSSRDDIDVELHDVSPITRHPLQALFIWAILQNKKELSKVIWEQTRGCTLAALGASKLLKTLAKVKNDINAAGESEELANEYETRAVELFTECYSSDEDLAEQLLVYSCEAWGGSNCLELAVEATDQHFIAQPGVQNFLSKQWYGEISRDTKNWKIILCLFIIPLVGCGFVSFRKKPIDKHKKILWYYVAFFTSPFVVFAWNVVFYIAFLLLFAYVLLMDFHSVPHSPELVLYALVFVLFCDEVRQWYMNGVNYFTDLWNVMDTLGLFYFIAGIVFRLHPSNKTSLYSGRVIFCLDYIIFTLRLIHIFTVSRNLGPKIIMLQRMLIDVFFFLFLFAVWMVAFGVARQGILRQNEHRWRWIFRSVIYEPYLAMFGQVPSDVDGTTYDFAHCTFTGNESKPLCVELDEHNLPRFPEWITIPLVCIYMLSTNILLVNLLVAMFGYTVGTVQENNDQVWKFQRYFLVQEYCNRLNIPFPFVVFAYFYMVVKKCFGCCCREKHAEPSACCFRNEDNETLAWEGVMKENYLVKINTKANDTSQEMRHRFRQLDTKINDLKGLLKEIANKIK

Consider `CC(C)n1c(=NS(=O)(=O)c2ccccc2)n(Cc2ccc(C(F)(F)F)c(F)c2)c2cc(C(F)(F)F)ccc21` [Compound 35], for which the “% Inh @ 0.2 μM” value (Table 6) stood at 100%. Also, the IC50 under setting [1] was determined as 10 nM.

`Cn1c(=NS(=O)(=O)c2ccccc2)n(Cc2ccc(C(F)(F)F)c(F)c2)c2cc(C(F)(F)F)ccc21` [Compound 31] came in with an inhibition at 0.2 µM (Table 6) of 71%. In addition, the IC50 under setting [1] came out at 39 nM.

With `Cn1c(=NS(=O)(=O)c2ccc(Cl)cc2)n(Cc2ccc(C(F)(F)F)c(F)c2)c2ccccc21` [Compound 22], for the setting “Table 6”, the “% Inh @ 0.2 μM” value turned out to be 6%. Further, the “% Inh @ 1 μM” value (re-test, Table 7) turned out to be 77%. The IC50 under setting [2] amounted to 512 nM.

Turning to `CC(C)n1c(=NS(=O)(=O)c2ccccc2)n(Cc2ccc(OC(F)(F)F)cc2)c2cc(C(F)(F)F)ccc21` [Compound 34], where the note is “Table 6”, at 0.2 µM the inhibition was 95%. Besides, the IC50 under setting [1] is 24 nM.

As to `Cc1ccc2c(c1)n(C)c(=NS(=O)(=O)c1ccccc1)n2Cc1ccc(OC(F)(F)F)cc1` [Compound 54], the “% Inh @ 0.2 μM” value (Table 6) is 6%. Besides, the “% Inh @ 1 μM” value (re-test, Table 7) was 55%. In addition, under setting [2], the IC50 came to 645 nM.

In turn, `O=S(=O)(/N=c1\n(Cc2ccc(C(F)(F)F)c(F)c2)c2ccccc2n1CC(F)(F)F)c1ccccc1` [Compound 43, N-[1-(3-Fluoro-4-trifluoromethyl-benzyl)-3-(2,2,2-trifluoro-ethyl)-1,3-dihydro-benzimidazol-2-ylidene]-benzenesulfonamide] yielded an inhibition at 0.2 µM (Table 6) of 89%. Besides, the IC50 under setting [1] was determined as 21 nM.

Where the note is “Table 6”, `O=S(=O)(N=c1n(Cc2ccc(C(F)(F)F)cc2)c2ccccc2n1CC(F)(F)F)c1ccccc1` [Compound 40] displayed an inhibition at 0.2 µM of 9%. Further, under “re-test, Table 7”, the inhibition at 1 µM amounted to 57%. Moreover, under setting [2], the IC50 came out at 426 nM.

`Cn1c(=NS(=O)(=O)c2ccccc2)n(Cc2ccc(F)c(F)c2)c2ccccc21` [Compound 7]: the “% Inh @ 0.2 μM” value (Table 6) turned out to be 24%.

`O=S(=O)(/N=c1\n(Cc2ccc(C(F)(F)F)cc2)c2cccc3c2n1CCO3)c1ccccc1` [Compound 63, N-[1-(4-Trifluoromethyl-benzyl)-3,4-dihydro-1H-5-oxa-1,2a-diaza-acenaphthylen-2-ylidene]-benzenesulfonamide TFA salt] displayed an inhibition at 0.2 µM (Table 6) of 34%.

Regarding `Cn1c(=NS(=O)(=O)c2ccccc2)n(Cc2cccc(OC(F)(F)F)c2)c2ccccc21` [Compound 5], the “% Inh @ 0.2 μM” value (Table 6) is listed as 50%.

With `Cn1c(=NS(=O)(=O)c2ccccc2)n(Cc2ccc(C(F)(F)F)c(F)c2)c2ccccc21` [Compound 10], the “% Inh @ 0.2 μM” value (Table 6) is given as 22%.

On to `Cc1cc2c(cc1C)n(Cc1ccc(OC(F)(F)F)cc1)c(=NS(=O)(=O)c1ccccc1)n2C` [Compound 60], for which the “% Inh @ 0.2 μM” value (Table 6) worked out at 5%. Besides, where the note is “re-test, Table 7”, the “% Inh @ 1 μM” value came to 48%.

As to `O=S(=O)(N=c1n(Cc2ccc(C(F)(F)F)c(F)c2)c2cccc3c2n1CCC3)c1ccccc1` [Compound 51], for the setting “Table 6”, the “% Inh @ 0.2 μM” value is listed as 14%.

Turning to `Cn1c(=NS(=O)(=O)c2ccccc2)n(Cc2ccc(C(F)(F)F)c(F)c2)c2ccc(C(F)(F)F)cc21` [Compound 57], the “% Inh @ 0.2 μM” value (Table 6) is 45%.

Turning to `CCn1c(=NS(=O)(=O)c2ccccc2)n(Cc2ccc(OC(F)(F)F)cc2)c2ccccc21` [Compound 14], the “% Inh @ 0.2 μM” value (Table 6) is 75%. Also, under setting [1], the IC50 stood at 100 nM.

Under “Table 6”, `Cn1c(=NS(=O)(=O)c2ccc(C(F)(F)F)cc2)n(Cc2ccc(C(F)(F)F)c(F)c2)c2ccccc21` [Compound 23] displayed an inhibition at 0.2 µM of 3%. For the same compound, testing at 1 µM (re-test, Table 7) gave an inhibition of 59%. Further, the IC50 under setting [2] came out at 764 nM.

Compound `CC(C)Cn1c(=NS(=O)(=O)c2ccccc2)n(Cc2ccc(C(F)(F)F)c(F)c2)c2ccccc21` [Compound 26] returned an inhibition at 0.2 µM (Table 6) of 100%. Moreover, under setting [1], the IC50 was 14 nM.

Consider `Cc1cc2c(cc1C)n(Cc1ccc(C(F)(F)F)c(F)c1)c(=NS(=O)(=O)c1ccccc1)n2C` [Compound 61], for which, where the note is “Table 6”, the “% Inh @ 0.2 μM” value is given as 14%.

Regarding `Cn1c(=NS(=O)(=O)c2ccccc2)n(Cc2ccc(C(F)(F)F)cc2)c2cc(F)ccc21` [Compound 38], the “% Inh @ 0.2 μM” value (Table 6) is 1%. Moreover, the “% Inh @ 1 μM” value (re-test, Table 7) is reported as 24%.

Take `Cn1c(=NS(=O)(=O)c2ccccc2)n(Cc2ccc(OC(F)(F)F)cc2)c2ccccc21` [Compound 2]: the “% Inh @ 0.2 μM” value (Table 6) amounted to 34%.

As to `Cn1c(=NS(=O)(=O)c2ccccc2)n(Cc2ccc(C(F)(F)F)cc2)c2ccc(C(F)(F)F)cc21` [Compound 59], for the setting “Table 6”, the “% Inh @ 0.2 μM” value is recorded as 20%.

For `Cn1c(=NS(=O)(=O)c2ccccc2)n(Cc2ccc(C(F)(F)F)cc2)c2ccccc21` [Compound 6], the “% Inh @ 0.2 μM” value (Table 6) was determined as 2%. Also, the “% Inh @ 1 μM” value (re-test, Table 7) is recorded as 65%.

Regarding `O=S(=O)(N=c1n(Cc2ccc(OC(F)(F)F)cc2)c2ccccc2n1CC(F)(F)F)c1ccccc1` [Compound 44], the “% Inh @ 0.2 μM” value (Table 6) was determined as 37%.

On to `O=S(=O)(N=c1n(Cc2ccc(OC(F)(F)F)cc2)c2cccc3c2n1CCC3)c1ccccc1` [Compound 52], for which the “% Inh @ 0.2 μM” value (Table 6) amounted to 18%.

For the compound `Cc1ccc2c(c1)n(C)/c(=N/S(=O)(=O)c1ccccc1)n2Cc1ccc(C(F)(F)F)c(F)c1` [Compound 55, N-[1-(3-Fluoro-4-trifluoromethyl-benzyl)-3,5-dimethyl-1,3-dihydro-benzimidazol-2-ylidene]-benzene sulfonamide], under “Table 6”, 0.2 µM produced 18% inhibition.

Consider `O=S(=O)(N=c1n2c3c(cccc3n1-c1ccc(OC(F)(F)F)cc1)OCC2)c1ccccc1` [Compound 64], for which, for the setting “Table 6”, the “% Inh @ 0.2 μM” value stood at 61%.

Compound `O=S(=O)(N=c1n(Cc2ccc(C(F)(F)F)cc2)c2ccccc2n1CC1CC1)c1ccccc1` [Compound 49] displayed an inhibition at 0.2 µM (Table 6) of 71%. The IC50 under setting [1] was found to be 110 nM.

In the case of `Cn1c(=NS(=O)(=O)c2ccc(F)cc2)n(Cc2ccc(C(F)(F)F)cc2)c2ccccc21` [Compound 16], the “% Inh @ 0.2 μM” value (Table 6) was found to be 1%. Besides, the “% Inh @ 1 μM” value (re-test, Table 7) was 57%.

Under “Table 6”, `Cn1c(=NS(=O)(=O)c2ccccc2)n(Cc2ccc(OC(F)F)cc2)c2ccccc21` [Compound 13] came in with an inhibition at 0.2 µM of 9%. Moreover, under “re-test, Table 7”, 1 µM produced 55% inhibition. The IC50 under setting [2] was found to be 764 nM.

For the setting “Table 6”, `Cn1c(=NS(=O)(=O)c2ccc(Cl)cc2)n(Cc2ccc(OC(F)(F)F)cc2)c2ccccc21` [Compound 20] came in with an inhibition at 0.2 µM of 2%. For the same compound, under “re-test, Table 7”, at 1 µM the inhibition was 74%. Besides, the IC50 under setting [2] turned out to be 430 nM.

For `CC(C)Cn1c(=NS(=O)(=O)c2ccccc2)n(Cc2ccc(OC(F)(F)F)cc2)c2ccccc21` [Compound 28], for the setting “Table 6”, the inhibition at 0.2 µM was determined as 70%. Further, the IC50 under setting [1] is 58 nM.

As for `Cn1c(=NS(=O)(=O)c2ccccc2)n(Cc2ccccc2)c2ccccc21` [Compound 3], the “% Inh @ 0.2 μM” value (Table 6) came to 8%. In addition, the “% Inh @ 1 μM” value (re-test, Table 7) is given as 40%.

With `Cn1c(=NS(=O)(=O)c2ccccc2)n(Cc2ccc(SC(F)(F)F)cc2)c2ccccc21` [Compound 12], for the setting “Table 6”, the “% Inh @ 0.2 μM” value is 11%.

`CC(C)n1c(=NS(=O)(=O)c2ccccc2)n(Cc2ccc(C(F)(F)F)c(F)c2)c2cc(Cl)ccc21` [Compound 42] registered an inhibition at 0.2 µM (Table 6) of 95%. Moreover, the IC50 under setting [1] turned out to be 26 nM.

For the compound `Cc1cccc2c1n(Cc1ccc(C(F)(F)F)c(F)c1)c(=NS(=O)(=O)c1ccccc1)n2C` [Compound 62], the “% Inh @ 0.2 μM” value (Table 6) was 19%.

On to `Cn1c(=NS(=O)(=O)c2ccccc2)n(Cc2ccc(OC(F)(F)F)cc2)c2cc(F)ccc21` [Compound 46], for which the “% Inh @ 0.2 μM” value (Table 6) is 1%. Moreover, under “re-test, Table 7”, the “% Inh @ 1 μM” value is listed as 58%.
